# In ChEMBL document CHEMBL1201862, “PubChem BioAssay data set” (2004):
# Active and inactive are the calls of the source.
# Legend:
# [1] = biological target: T1, Small ubiquitin-related modifier 1 (Homo sapiens, UniProt P63165); test: inhibitors of SUMO1 partner interactions, dose response, biochemical, FRET (AID 624383); type: functional; details: read-out: IC50_Mean
# Insulin-degrading enzyme = Insulin-degrading enzyme (Homo sapiens, UniProt P14735); test: Dose Response: Fluorescence polarization-based cell-based high throughput dose response assay for inhibitors of insulin-degrading enzyme (IDE). [Related pubchem assays: 434962 (Primary screen (IDE inhibitors in singlicate)), 449730 (Counterscreen (Cytotoxicity in triplicate)), 435028 (Confirmation (IDE inhibitors in triplicate)), 434984 (Summary …; type: functional
# Insulin-degrading enzyme, sequence (P14735 whole entry): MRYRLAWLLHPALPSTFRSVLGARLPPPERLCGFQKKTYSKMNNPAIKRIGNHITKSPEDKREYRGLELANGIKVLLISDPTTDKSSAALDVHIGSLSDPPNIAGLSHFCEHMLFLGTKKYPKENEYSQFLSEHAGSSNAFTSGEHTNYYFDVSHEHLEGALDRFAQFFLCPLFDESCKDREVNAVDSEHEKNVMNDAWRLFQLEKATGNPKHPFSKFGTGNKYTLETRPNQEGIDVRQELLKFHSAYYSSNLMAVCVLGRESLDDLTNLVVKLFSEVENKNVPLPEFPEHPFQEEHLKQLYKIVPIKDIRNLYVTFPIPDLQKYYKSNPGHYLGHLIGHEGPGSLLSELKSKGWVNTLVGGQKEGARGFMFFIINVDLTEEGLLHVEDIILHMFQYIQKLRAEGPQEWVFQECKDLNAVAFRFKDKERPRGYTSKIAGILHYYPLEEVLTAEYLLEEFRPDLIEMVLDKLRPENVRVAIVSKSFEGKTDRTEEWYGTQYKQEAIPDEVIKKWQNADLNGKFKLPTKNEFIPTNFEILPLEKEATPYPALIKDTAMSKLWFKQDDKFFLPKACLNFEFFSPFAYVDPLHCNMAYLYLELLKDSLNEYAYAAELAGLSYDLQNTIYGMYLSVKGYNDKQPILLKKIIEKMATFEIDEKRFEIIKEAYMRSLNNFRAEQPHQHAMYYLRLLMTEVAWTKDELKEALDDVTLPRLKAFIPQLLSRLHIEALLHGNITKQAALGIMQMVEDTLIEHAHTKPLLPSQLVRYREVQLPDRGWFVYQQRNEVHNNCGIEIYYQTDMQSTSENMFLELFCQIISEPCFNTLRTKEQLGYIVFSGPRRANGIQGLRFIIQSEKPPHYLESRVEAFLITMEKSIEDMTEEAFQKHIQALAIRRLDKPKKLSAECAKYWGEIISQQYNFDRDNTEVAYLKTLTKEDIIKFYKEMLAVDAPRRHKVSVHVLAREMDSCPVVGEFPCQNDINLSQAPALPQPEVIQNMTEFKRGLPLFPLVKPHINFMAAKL
# [2] = biological target: Induced myeloid leukemia cell differentiation protein Mcl-1 (Homo sapiens, UniProt Q07820); type: functional
# Induced myeloid leukemia cell differentiation protein Mcl-1, sequence (Q07820 whole entry): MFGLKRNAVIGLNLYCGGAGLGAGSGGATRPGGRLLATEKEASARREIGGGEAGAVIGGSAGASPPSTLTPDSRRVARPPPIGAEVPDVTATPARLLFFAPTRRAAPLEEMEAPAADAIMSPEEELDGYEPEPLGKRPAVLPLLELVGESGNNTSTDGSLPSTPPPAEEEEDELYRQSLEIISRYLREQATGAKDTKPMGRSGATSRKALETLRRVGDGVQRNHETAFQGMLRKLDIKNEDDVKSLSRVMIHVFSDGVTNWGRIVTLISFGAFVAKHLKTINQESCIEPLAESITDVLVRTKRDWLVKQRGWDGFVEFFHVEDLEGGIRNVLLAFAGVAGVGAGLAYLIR
# Genome polyprotein = Genome polyprotein (Hepatitis C virus, UniProt Q2Q167); test: HCV core protein dimerization inhibitors, dose response, biochemical, TR-FRET (AID 2159); parameters: species or system Hepacivirus hominis;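 further: blocks dimerization of HCV core protein measured by TR-FRET between tagged core106 pairs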
# Genome polyprotein, sequence (Q2Q167 whole entry): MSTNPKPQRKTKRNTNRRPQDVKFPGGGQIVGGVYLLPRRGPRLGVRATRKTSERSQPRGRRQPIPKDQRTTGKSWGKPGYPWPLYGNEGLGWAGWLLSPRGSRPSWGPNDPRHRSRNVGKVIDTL
# [3] = Counterscreen for IDE inhibitors: Luminescence-based cell-based high throughput dose response assay to identify compounds that are cytotoxic to HEK cells. [Related pubchem assays: 434962 (Primary screen (IDE inhibitors in singlicate)), 449730 (Counterscreen (Cytotoxicity in triplicate)), 435028 (Confirmation (IDE inhibitors in triplicate)) …; type: functional; details: HEK293
# [4] = biological target: T1, Small ubiquitin-related modifier 1; test: inhibitors of SUMO1 peptide binding, dose response, biochemical, fluorescence polarization, uHTS hits (AID 624382); type: functional; details: read-out: IC50_Mean
# cells = type: functional, cell-based; details: HEK-CNG
# [5] = Luminescence Cell-Based Dose Confirmation HTS to Identify Activators of 5'UTR Stem-Loop Driven Alpha-Synuclein mRNA Translation in H4 Neuroglioblastoma Cells. [Related pubchem assays: 1829 (Project Summary), 1814 (Primary HTS)]; type: functional
# [6] = Luminescence Cell-Based Dose Response HTS to Identify Activators of Luciferase Translation or Activity in H4 […] Cells. [Related pubchem assays: 1829 (Project Summary), 1814 (Primary HTS)]; type: functional
# [7] = Luminescence Cell-Based Dose Confirmation HTS to Identify Inhibitors of Platelet Dense Granule Release. [Related pubchem assays: 1663 (Primary HTS), 1678 (Summary of Project)]; type: functional
# HEK293 [8] = test: Fluorescence-based counterscreen for potentiators or agonists of NPY-Y2: cell-based high-throughput dose response assay to identify inhibitors of cyclic nucleotide gated ion channel (CNGC) activity. In this assay, the parental HEK293 cell line transfected with a cyclic-nucleotide gated ion channel (CNGC)-based cAMP sensor is used to measure inhibition of isoproterenol-induced CNGC activity by test compound.; type: functional; details: Homo sapiens
# [9] = biological target: Neuropeptide Y receptor type 1 (Homo sapiens, UniProt P25929); test: Fluorescence-based counterscreen for agonists of NPY-Y2: cell-based high-throughput dose response assay for agonists of NPY-Y1.; type: functional
# Neuropeptide Y receptor type 1, sequence (P25929 whole entry): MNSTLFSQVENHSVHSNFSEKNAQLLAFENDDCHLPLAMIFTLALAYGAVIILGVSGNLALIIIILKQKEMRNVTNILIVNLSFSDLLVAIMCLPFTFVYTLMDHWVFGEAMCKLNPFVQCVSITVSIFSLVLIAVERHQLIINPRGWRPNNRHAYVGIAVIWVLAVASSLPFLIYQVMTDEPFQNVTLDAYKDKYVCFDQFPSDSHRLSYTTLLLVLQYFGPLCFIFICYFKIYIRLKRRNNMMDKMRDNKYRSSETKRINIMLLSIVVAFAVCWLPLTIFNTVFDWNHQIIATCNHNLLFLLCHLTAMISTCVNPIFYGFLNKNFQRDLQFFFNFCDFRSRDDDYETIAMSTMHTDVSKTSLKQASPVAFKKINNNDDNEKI
# Galanin receptor type 3 = Galanin receptor type 3 (Homo sapiens, UniProt O60755); test: Fluorescence-based cell-based primary high throughput dose response assay to identify antagonists of the Galanin Receptor 3 (GalR3).; type: functional
# Galanin receptor type 3, sequence (O60755 whole entry): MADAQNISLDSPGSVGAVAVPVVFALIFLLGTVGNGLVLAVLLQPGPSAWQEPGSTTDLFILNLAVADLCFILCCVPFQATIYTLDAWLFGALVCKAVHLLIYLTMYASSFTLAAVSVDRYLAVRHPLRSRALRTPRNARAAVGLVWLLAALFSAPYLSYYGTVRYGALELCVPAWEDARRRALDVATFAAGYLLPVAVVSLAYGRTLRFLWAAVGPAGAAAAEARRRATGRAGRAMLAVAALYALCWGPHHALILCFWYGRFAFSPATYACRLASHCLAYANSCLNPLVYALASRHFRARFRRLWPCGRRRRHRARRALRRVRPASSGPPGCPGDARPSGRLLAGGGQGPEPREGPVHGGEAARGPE
# [10] = biological target: Neuropeptide Y receptor type 2 (Homo sapiens, UniProt P49146); test: Fluorescence-based cell-based high-throughput dose response assay for agonists of NPY-Y2. [Related pubchem assays: 1703 (Screening assay (CNGC inhibitors).), 1359 (Screening assay (NPY-Y2 potentiators or agonists).), 1304 (Screening assay (NPY-Y1 potentiators or agonists).), 1710 (Screening assay (NPY-Y2 agonists).), 1791 (Summary AID.)]; type: functional
# Neuropeptide Y receptor type 2, sequence (P49146 whole entry): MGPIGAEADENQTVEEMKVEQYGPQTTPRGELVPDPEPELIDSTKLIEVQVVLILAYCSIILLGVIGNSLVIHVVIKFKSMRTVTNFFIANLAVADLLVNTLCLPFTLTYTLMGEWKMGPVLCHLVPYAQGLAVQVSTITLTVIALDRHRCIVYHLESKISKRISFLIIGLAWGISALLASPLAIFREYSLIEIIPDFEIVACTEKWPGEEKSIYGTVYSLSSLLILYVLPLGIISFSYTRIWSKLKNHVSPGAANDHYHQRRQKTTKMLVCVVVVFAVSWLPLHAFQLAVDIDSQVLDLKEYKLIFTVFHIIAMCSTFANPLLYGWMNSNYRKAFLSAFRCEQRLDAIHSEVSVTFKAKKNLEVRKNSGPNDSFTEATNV
# H4 = test: Luminescence Cell-Based Dose Response HTS to Identify Activators of 5'UTR Stem-Loop Driven Prion Protein mRNA Translation in H4 Neuroglioblastoma Cells. [Related pubchem assays: 1829 (Project Summary), 1814 (Primary HTS)]; type: functional; details: Homo sapiens
# [11] = biological target: Luciferin 4-monooxygenase (Photinus pyralis, UniProt P08659); test: firefly luciferase enzyme inhibitors, dose response, biochemical, luminescence (AID 1891)
# Luciferin 4-monooxygenase, sequence (P08659 whole entry): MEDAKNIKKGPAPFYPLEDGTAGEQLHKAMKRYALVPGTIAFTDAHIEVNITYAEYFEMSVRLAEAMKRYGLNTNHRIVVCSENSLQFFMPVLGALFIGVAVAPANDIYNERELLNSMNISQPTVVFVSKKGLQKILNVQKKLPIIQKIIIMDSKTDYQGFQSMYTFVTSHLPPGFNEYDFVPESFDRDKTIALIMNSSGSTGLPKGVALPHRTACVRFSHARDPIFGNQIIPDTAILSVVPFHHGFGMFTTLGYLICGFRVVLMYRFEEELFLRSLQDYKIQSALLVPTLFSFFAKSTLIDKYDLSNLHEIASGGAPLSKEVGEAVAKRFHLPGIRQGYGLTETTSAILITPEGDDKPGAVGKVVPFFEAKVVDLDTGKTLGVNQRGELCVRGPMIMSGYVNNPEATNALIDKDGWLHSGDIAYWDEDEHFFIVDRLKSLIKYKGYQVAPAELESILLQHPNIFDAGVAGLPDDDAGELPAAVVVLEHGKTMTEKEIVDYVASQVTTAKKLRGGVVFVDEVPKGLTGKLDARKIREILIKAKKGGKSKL
# Streptococcus = test: Group A Streptococcus viability loss, dose response, counter-screen for streptokinase expression inhibitor project, luminescence, BacTiterGlo (AID 1915); type: functional, organism-based;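 further: potency for reduction of bacterial viability or growth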
# [12] = Luminescence Cell-Based Dose Confirmation to Identify Activators of 5'UTR Stem-Loop Driven Alpha-Synuclein mRNA Translation in H4 Neuroglioblastoma Cells. [Related pubchem assays: 1829 (Project Summary), 1814 (Primary HTS)]; type: functional
# [13] = inhibitors of intracellular T. cruzi replication, confirmation, NIH3T3 host cells, beta-gal luminescence (AID 2044); type: functional, cell-based;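 further: intracellular parasites grown in NIH/3T3 mouse fibroblasts as host cells; luminescent beta-galactosidase reporter signal from transgenic T. cruzi replicating inside host cells; inhibitors lower the luminescence signal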
# [14] = Luminescence Cell-Based Dose Response to Identify Activators of 5'UTR Stem-Loop Driven Prion Protein mRNA Translation in H4-C Neuroglioblastoma Cells. [Related pubchem assays: 1829 (Project Summary), 1814 (Primary HTS)]; type: functional
# NS3 = NS3 (Hepatitis C virus, UniProt A3EZJ3); test: PubChem AID 2173; parameters: species or system Hepacivirus hominis
# NS3, sequence (A3EZJ3 whole entry): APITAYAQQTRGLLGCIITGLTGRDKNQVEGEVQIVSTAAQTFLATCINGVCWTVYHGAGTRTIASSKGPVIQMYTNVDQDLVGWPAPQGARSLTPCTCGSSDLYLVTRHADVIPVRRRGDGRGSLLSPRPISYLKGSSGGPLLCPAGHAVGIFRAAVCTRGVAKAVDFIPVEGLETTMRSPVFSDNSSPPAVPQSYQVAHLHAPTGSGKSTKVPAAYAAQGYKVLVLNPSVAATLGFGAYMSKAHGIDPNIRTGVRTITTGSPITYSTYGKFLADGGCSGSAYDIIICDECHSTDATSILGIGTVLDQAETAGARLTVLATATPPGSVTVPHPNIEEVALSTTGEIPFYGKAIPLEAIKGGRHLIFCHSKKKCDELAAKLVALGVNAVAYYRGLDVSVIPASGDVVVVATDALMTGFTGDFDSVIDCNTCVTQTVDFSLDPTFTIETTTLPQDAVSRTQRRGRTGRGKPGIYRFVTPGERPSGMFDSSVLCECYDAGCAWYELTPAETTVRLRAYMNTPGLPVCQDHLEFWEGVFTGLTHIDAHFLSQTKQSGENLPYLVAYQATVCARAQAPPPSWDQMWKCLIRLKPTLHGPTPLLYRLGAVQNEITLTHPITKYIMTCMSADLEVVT
# INS1 = test: beta cell apoptosis inhibitors, cytokine rescue, dose response, luminescence, retest (AID 449756); type: functional, cell-based; details: Rattus norvegicus, INS1;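 further: cell death triggered by IL-1 beta plus TNF-alpha plus IFN-gamma mixture; protective hits raise ATP signal compared with cytokine alone wells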
# [15] = test system: Streptococcus sp. 'group A'; test: growth inhibition of control SK(-) GAS strain, dose response, counter-screen for streptokinase expression inhibitor project, luminescence, kanamycin, BacTiterGlo, confirmation (AID 1900); type: functional, organism-based
# [16] = cytotoxicity toward NIH3T3 fibroblasts, dose response, counter-screen, cell-based, ATP luminescence, mouse fibroblasts (AID 2010); type: functional;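 further: cells exposed to compound for about 90 hours before reading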
# [17] = Luminescence Cell-Based Dose Response to Identify Activators of Luciferase Translation or Activity in H4-C Neuroglioblastoma Cells. [Related pubchem assays: 1829 (Project Summary), 1814 (Primary HTS)]; type: functional
# Streptokinase A = biological target: T2, Streptokinase A (Streptococcus pyogenes serotype M1, UniProt P10520); test: S. pyogenes streptokinase expression inhibitors, potency, dose response, plasminogen activation absorbance, OD405 (AID 1914); type: functional, Streptococcus pyogenes M1 GAS;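 further: secreted streptokinase activity via plasminogen activation per viability signal from cell pellet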
# T2 sequence (P10520 whole entry): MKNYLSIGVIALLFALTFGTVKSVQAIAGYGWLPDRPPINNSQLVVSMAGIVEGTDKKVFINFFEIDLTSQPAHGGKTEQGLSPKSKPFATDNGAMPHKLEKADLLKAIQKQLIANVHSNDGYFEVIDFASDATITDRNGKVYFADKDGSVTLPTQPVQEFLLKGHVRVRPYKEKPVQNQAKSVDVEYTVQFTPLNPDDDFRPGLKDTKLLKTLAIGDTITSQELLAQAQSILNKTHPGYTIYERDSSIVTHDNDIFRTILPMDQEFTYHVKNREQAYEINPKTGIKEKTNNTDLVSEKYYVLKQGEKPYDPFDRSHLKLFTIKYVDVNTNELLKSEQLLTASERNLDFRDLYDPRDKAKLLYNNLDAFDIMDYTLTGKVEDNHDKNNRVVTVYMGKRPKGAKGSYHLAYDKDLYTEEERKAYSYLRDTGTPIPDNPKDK
# Estrogen receptor = biological target: T3, Estrogen receptor (Homo sapiens, UniProt P03372); test: ERα–SRC-3 coactivator interaction inhibitors, confirmation, orthogonal assay, biochemical, ELISA, streptavidin-HRP readout (AID 1079)
# T3 sequence (P03372 whole entry): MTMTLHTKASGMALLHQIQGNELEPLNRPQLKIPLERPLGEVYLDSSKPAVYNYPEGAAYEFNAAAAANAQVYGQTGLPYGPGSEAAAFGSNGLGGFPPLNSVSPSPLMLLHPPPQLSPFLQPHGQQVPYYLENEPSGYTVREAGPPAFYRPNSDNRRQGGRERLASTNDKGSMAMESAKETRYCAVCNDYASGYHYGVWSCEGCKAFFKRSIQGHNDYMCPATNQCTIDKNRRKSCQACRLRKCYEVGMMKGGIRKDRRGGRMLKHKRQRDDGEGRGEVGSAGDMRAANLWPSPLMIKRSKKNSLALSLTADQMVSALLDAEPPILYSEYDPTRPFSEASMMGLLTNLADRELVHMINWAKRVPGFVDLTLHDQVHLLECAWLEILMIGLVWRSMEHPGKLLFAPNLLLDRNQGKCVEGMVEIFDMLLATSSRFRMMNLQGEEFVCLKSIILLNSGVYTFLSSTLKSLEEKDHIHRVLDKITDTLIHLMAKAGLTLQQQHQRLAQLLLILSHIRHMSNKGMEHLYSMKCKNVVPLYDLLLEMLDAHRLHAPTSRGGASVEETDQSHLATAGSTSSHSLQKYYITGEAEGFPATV
# HEK293 [18] = test: cells; details: Homo sapiens
# HEK293 [19] = test: cells; details: Homo sapiens; remark: listed apart in the source
# HeLa = test: Cytotoxicity counterscreen assay for transcriptional activators of heat shock protein 70 (Hsp70). [Related pubchem assays: 1203, 1252 ]; type: functional; details: Homo sapiens;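 further: cells exposed to compound for 16 hours before readout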
# [20] = control 3'UTR Renilla luciferase suppression, dose response, counter-screen for Shn3 inhibitor project, cell-based, Clone20-Shn3RL, cherry-picked (AID 624133); type: functional
# [21] = HepG2 cell cytotoxicity, dose response, cytotoxicity control for Shn3 inhibitor project, CellTiter-Glo, cherry-picked (AID 624134); type: functional, cell-based
# [22] = Shn3 3'UTR reporter inhibitors, dose response, cell-based, Clone20 osteoblasts, firefly luciferase, cherry-picked (AID 624132); type: functional;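 further: firefly luciferase luminescence from reporter carrying the Shn3 3'UTR in osteoblasts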
# [23] = biological target: T4, Microphthalmia-associated transcription factor (Homo sapiens, UniProt O75030); test: TRPM1 promoter luciferase signal decrease, dose response, MITF inhibitor project, cell-based, SK-MEL-5, cherry-picked, set 3 (AID 493073); type: functional
# T4 sequence (O75030 whole entry): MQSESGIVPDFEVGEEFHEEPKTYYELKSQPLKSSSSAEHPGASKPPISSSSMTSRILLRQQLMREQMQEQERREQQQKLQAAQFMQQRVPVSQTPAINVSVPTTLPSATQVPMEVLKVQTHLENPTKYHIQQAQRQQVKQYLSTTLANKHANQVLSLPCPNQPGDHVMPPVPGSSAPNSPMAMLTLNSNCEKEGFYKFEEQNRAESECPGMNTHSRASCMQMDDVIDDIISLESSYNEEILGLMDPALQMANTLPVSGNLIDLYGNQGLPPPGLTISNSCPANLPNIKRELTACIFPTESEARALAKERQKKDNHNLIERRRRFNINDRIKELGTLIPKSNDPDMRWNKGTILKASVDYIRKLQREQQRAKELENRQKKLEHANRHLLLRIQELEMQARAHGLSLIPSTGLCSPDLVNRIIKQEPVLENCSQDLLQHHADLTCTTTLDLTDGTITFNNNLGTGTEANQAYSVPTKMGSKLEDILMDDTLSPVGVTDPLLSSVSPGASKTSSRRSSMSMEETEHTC
# T1 sequence (P63165 whole entry): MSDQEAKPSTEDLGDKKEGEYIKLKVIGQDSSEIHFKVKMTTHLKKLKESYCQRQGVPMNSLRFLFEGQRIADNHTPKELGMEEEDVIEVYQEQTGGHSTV
structure (smiles),measurement,setting,value
COc1cccc(/C=N/Nc2[nH]cnc3c4cc(C)ccc4nc2-3)c1OC,IC50,[1],2.38 µM (active)
same,IC50,Insulin-degrading enzyme,0.571 µM (active)
same,IC50,[2],3.73 µM (active)
same,IC50,Genome polyprotein,> 49.8 µM (not active)
same,IC50,[3],24.9 µM (not active)
same,IC50,[4],> 66.6 µM (inactive)
Nc1cc(-c2ccc(Br)cc2)nn1Cc1ccccc1,EC50,cells,> 29.9 µM (inactive)
same,EC50,[5],7.99 µM (active)
same,EC50,[6],18 µM (active)
same,EC50,[7],> 112 µM (not active)
same,EC50,HEK293 [8],9.3 µM (active)
same,EC50,[9],11.6 µM (not active)
same,IC50,Galanin receptor type 3,3.55 µM (active)
same,EC50,[10],13.1 µM (not active)
same,EC50,H4,13.1 µM (active)
same,EC50,[11],> 112 µM (not active)
NC(=S)N/N=C/c1ccc(C23CC4CC(CC(C4)C2)C3)cc1,EC50,[5],< 0.1 µM (active)
same,EC50,[6],< 0.1 µM (active)
same,EC50,Streptococcus,> 50 µM (not active)
same,EC50,[12],0.324 µM (active)
same,EC50,[13],0.387 µM (active)
same,EC50,[14],1.31 µM (active)
same,IC50,NS3,5.41 µM (active)
same,AC50,INS1,5.3 µM (active)
same,EC50,[15],2.4 µM (active)
same,EC50,[16],7.3 µM (active)
same,EC50,[17],0.415 µM (active)
same,EC50,H4,96.8 µM (active)
same,EC50,Streptokinase A,13.4 µM (active)
O=C(CCCCCn1c(=S)[nH]c2ccccc2c1=O)N1CCN(c2ccncc2)CC1,IC50,Estrogen receptor,0.03 µM (not active)
CCCC(=O)N1CCN(c2ccc(NC(=O)c3ccc([N+](=O)[O-])o3)cc2Cl)CC1,EC50,HEK293 [18],> 59.6 µM (inactive)
same,EC50,HEK293 [19],> 59.6 µM (inactive)
same,EC50,[13],2.36 µM (active)
same,CC50,HeLa,4.19 µM (active)
same,AC50,[20],8.17 µM (active)
same,AC50,[21],36.6 µM (active)
same,AC50,[22],0.7 µM (active)
same,AC50,[23],7.65 µM (active)
same,EC50,[16],2.96 µM (active)
